From paper PMC11822212, “High-throughput screening identifies Aurora kinase B as a critical therapeutic target for Merkel cell carcinoma” (Nature Communications, 2025) come the findings set out here.

The test system of one assay is MCC13 cells (VN-MCC). The experiment in a line: qHTS cell viability (CellTiter-Glo, 72 h; primary and follow-up small molecule screen). The assay is classed as cell-based, human. On the technique in general: Quantitative high-throughput screening tests each substance at several concentrations.
The next assay relates to MCC26 cells (VN-MCC). The assay is described as above. Type of assay: cell-based, human.
The subject of a further assay is UISO cells (VN-MCC). Described as above. The assay is classed as cell-based, human.
The subject of the next assay is WAGA cells (VP-MCC). Described as above. Type of assay: cell-based, human.
For another assay, the system named is MKL-1 cells (VP-MCC). Described as above. Type of assay: cell-based, human.
The next assay deals with MKL-2 cells (VP-MCC). The assay is described as above. Type of assay: cell-based, human.
Another assay relates to HACAT cells. The assay can be described thus: qHTS cell viability (CellTiter-Glo, 72 h; primary screen), control cell line. The assay is classed as cell-based, human.
The subject of another assay is HEK293T cells. The assay is described as above. The assay is classed as cell-based, human.
A further assay relates to NIH-3T3 cells. Described as above. Type of assay: cell-based, mouse.
In another assay the test system is CRL-7250 cells. The description is as above. Type of assay: cell-based.
For assay [1], the system named is MCC cell lines (WAGA, MKL-1, MKL-2, MCC13, MCC26, UISO). The experiment in a line: qHTS cell viability, all six MCC cell lines as a group (mean AUC, MCC.avg). Type of assay: cell-based, human.
Assay [2] has as its system VP-MCC cell lines (WAGA, MKL-1, MKL-2). The experiment in a line: qHTS cell viability, VP-MCC cell lines as a group (mean AUC, VP.MCC.avg). Type of assay: cell-based, human.
Assay [3] concerns VN-MCC cell lines (MCC13, MCC26, UISO). The assay can be described thus: qHTS cell viability, VN-MCC cell lines as a group (mean AUC, VN.MCC.avg). The assay is classed as cell-based, human.
The test system of assay [4] is control cell lines (HACAT, HEK293T, CRL-7250, NIH-3T3). The experiment in a line: qHTS cell viability, control cell lines as a group (mean AUC, Control.avg). The assay is classed as cell-based.
Assay [5] has as its system six MCC cell lines and four control cell lines. The experiment in a line: qHTS cell viability, all 10 cell lines screened. The assay is classed as cell-based.
Where [6] appears, read: primary high-throughput screen, viability 72 h, n = 1.

Each structure is given as a SMILES string. Several values for one entry are separate records, joined by “and”; a condition that tells them apart may be missing. Identical values can stand only once. Counter-ions that a name gives are not always drawn. Like-named read-outs stand apart in the source and are kept apart here.

On to `CC(=O)OC1(c2ccccc2)CCN(CCc2ccccc2)CC1`, for which the MCC13_AUC in the assay with MCC13 cells (VN-MCC) was determined as 419.397. This compound also registered an MCC26_AUC with MCC26 cells (VN-MCC) of 420.097. Moreover, the UISO_AUC in the assay with UISO cells (VN-MCC) is on record as 389.875. In addition, the WAGA_AUC in the assay on WAGA cells (VP-MCC) was 388.929. In the assay with MKL-1 cells (VP-MCC), this compound registered an MKL1_AUC of 375.288. Besides, the MKL2_AUC with MKL-2 cells (VP-MCC) amounted to 382.375. For the same compound, the HACAT_AUC with HACAT cells is on record as 477.567. This compound displayed an HEK293T_AUC with HEK293T cells of 449.554. This compound also had an NIH3T3_AUC with NIH-3T3 cells of 473.448. The same compound displayed a CRL7250_AUC in the assay on CRL-7250 cells of 457.662. Moreover, the MCC_Avg_AUC in assay [1] was 395.993 and 395.994. In [2], this compound registered a Control-VP-MCC of 82.3602 and a VP-MCC_Avg_AUC of 382.197. Besides, in assay [3], the Control-VN-MCC worked out at 54.768 and the VN-MCC_Avg_AUC turned out to be 409.79. In [4], this compound returned a Control_Avg_AUC of 464.558. The Control-MCC in assay [5] is 68.5641.
Regarding `COc1cc(CCN)c(OC)cc1Br.Cl`, the MCC13_AUC in the assay with MCC13 cells (VN-MCC) is given as 402.391. The compound further showed an MCC26_AUC in the assay on MCC26 cells (VN-MCC) of 407.575. The compound further had a UISO_AUC in the assay with UISO cells (VN-MCC) of 386.993. Besides, the WAGA_AUC with WAGA cells (VP-MCC) was 421.438 and 421.439. This compound also showed an MKL1_AUC in the assay on MKL-1 cells (VP-MCC) of 396.289. Besides, the MKL2_AUC in the assay with MKL-2 cells (VP-MCC) is recorded as 390.615. Also, the HACAT_AUC in the assay on HACAT cells was 486.493. In the assay on HEK293T cells, the HEK293T_AUC worked out at 422.838. The NIH3T3_AUC in the assay with NIH-3T3 cells worked out at 468.152. Moreover, the CRL7250_AUC in the assay on CRL-7250 cells stood at 439.439. The compound further registered an MCC_Avg_AUC in assay [1] of 400.883. In assay [2], this compound yielded a Control-VP-MCC of 51.4501 and a VP-MCC_Avg_AUC of 402.781. Also, in assay [3], the Control-VN-MCC amounted to 55.2444 and the VN-MCC_Avg_AUC was 398.986. The same compound showed a Control_Avg_AUC in [4] of 454.231. In addition, in [5], the Control-MCC was determined as 53.3472.
`CCc1c2c(nc3ccc(OC(=O)N4CCC(N5CCCCC5)CC4)cc13)-c1cc3c(c(=O)n1C2)COC(=O)[C@]3(O)CC.Cl` [Irinotecan hydrochloride] displayed a Control-VP-MCC in [2] of 114.533. Further, the Control-VN-MCC in assay [3] amounted to 24.3005. In addition, the Control-MCC in assay [5] worked out at 69.4165.
Compound `CCOC(=O)N1CCC(=C2c3ccc(Cl)cc3CCc3cccnc32)CC1` [Loratadine] showed a Control-VP-MCC in assay [2] (NPC library, therapeutic window: Control avg AUC minus VP-MCC avg AUC) of 67.0216. The Control-VN-MCC in assay [3] (NPC library, therapeutic window: Control avg AUC minus VN-MCC avg AUC) came to 36.1824. Also, the Control-MCC in assay [5] (NPC library, therapeutic window: Control avg AUC minus MCC avg AUC) is 51.602.
Consider `CCC(=O)C(CC(C)N(C)C)(c1ccccc1)c1ccccc1` (stereo not drawn) [Methadone hydrochloride], for which the Control-VP-MCC in assay [2] is reported as 55.4471. The Control-VN-MCC in assay [3] is reported as 44.0199. In addition, the Control-MCC in assay [5] came to 49.7335.
Take `CN1CC[C@]23c4c5ccc(O)c4O[C@H]2[C@@H](O)C=C[C@H]3[C@H]1C5` [Morphine sulfate pentahydrate]: the figures for the Control-MCC in assay [1] and in assay [5] were 52.6315 and 52.6314, respectively. This compound also came in with a Control-VP-MCC in [2] of 53.1007. This compound also had a Control-VN-MCC in assay [3] of 52.1622.
In the case of `c1cc(-c2sc(-c3ccncc3)c(-c3ccncc3)c2-c2ccncc2)ccn1` [NSC-75503, reference compound], the “Area under the dose-response curve (AUC) MCC13” value with MCC13 cells (VN-MCC) (setting [6]) was determined as 492.9. Moreover, the “Area under the dose-response curve (AUC) MCC26” value with MCC26 cells (VN-MCC) (setting [6]) was determined as 468.9. For the same compound, the “Area under the dose-response curve (AUC) UISO” value with UISO cells (VN-MCC) (setting [6]) turned out to be 456.0. Further, the “Area under the dose-response curve (AUC) WAGA” value in the assay with WAGA cells (VP-MCC) (setting [6]) is given as 489.4. In the assay on MKL-1 cells (VP-MCC) (setting [6]), the “Area under the dose-response curve (AUC) MKL-1” value is 478.1. Moreover, the “Area under the dose-response curve (AUC) MKL-2” value with MKL-2 cells (VP-MCC) (setting [6]) came out at 550.2. For the same compound, the “Area under the dose-response curve (AUC) HACAT” value in the assay with HACAT cells (setting [6]) amounted to 453.3. Further, the “Area under the dose-response curve (AUC) HEK293T” value in the assay on HEK293T cells (setting [6]) is reported as 450.5. In addition, the “Area under the dose-response curve (AUC) NIH3T3” value with NIH-3T3 cells (setting [6]) is given as 481.5. For the same compound, in the assay on CRL-7250 cells (setting [6]), the “Area under the dose-response curve (AUC) CRL7250” value worked out at 461.0.
